Assay results from patent publication US7868026B2, “Therapeutic compounds” (Pfizer Inc., priority 2005, dated 2011).
Like-named read-outs stand apart in the source and are kept apart here.

What was measured:
Format in all cases: biochemical
CYP3A4 [1] = biological target: T1, CYP3A4 (Homo sapiens, UniProt P08684); assay: Determination of compound Kiapp against recombinant CYP3A4 enzyme (BFC fluorescent substrate)
Outline: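 Kiapp derived from initial velocities over the first 5 min of BFC (5 uM) oxidation, using Morrison's tight-binding equation for non-partial and Szedlacsek's for partial inhibitors. Inhibitor first pre-incubated ≥30 min with CYP3A4 (5.5 or 8 nM, ±b5) in pH 7.0 phosphate/TCEP/2% DMF at room temperature; 200 uM NADPH initiated.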

CYP3A4 [2] = biological target: T1, CYP3A4; assay: Determination of IC50 against CYP3A4 by measurement of inhibition of midazolam metabolism (human liver microsomes, 1-hydroxymidazolam by LC-MS/MS); design: 0.1 mg/mL human liver microsomes; conditions: 2 μM midazolam, 0.1 mg/mL human liver microsomes
Outline: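 Human liver microsomes (0.1 mg/mL) incubated 8 min with 2 μM midazolam and 1 mM NADPH in 100 mM potassium phosphate, pH 7.4. 1-Hydroxymidazolam quantified by LC-MS/MS (MRM) as peak area ratio to internal standard against a metabolite standard curve.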

CYP3A4 [3] = biological target: T1, CYP3A4; assay: Determination of IC50 against CYP3A4 by measurement of inhibition of testosterone metabolism (human liver microsomes, 6-β-OH-testosterone by LC-MS/MS); design: 0.1 mg/mL human liver microsomes; conditions: read-out: IC50 (Testo.)
Outline: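 6-β-OH-testosterone formation was read by LC-MS/MS (MRM, internal standard, standard curve) after eight minutes. Reaction contained testosterone 25 μM, NADPH 1 mM and microsomal protein 0.1 mg/mL in pH 7.4 potassium phosphate (100 mM).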

[4] = Baculo. enzyme preparation, read-out: Kiapp (BFC, Baculo.)
[5] = Super. enzyme preparation, read-out: Kiapp (BFC, Super.)

T1 sequence (P08684 whole entry): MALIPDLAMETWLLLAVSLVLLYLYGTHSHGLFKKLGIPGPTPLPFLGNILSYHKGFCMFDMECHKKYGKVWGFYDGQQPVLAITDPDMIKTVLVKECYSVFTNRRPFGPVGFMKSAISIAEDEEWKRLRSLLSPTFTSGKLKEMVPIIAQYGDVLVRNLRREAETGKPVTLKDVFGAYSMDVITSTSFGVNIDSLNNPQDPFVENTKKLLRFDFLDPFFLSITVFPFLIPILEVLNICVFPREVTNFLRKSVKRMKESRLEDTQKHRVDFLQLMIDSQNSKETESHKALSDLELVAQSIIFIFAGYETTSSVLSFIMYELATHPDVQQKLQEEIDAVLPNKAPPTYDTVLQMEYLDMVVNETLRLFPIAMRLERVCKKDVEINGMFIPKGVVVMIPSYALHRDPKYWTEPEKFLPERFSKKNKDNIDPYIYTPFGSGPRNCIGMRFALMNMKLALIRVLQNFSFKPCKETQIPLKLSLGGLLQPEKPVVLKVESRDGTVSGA

| Structure (SMILES) | Ki (CYP3A4 [1]; [4]) [nM] | Ki (CYP3A4 [1]; [5]) [nM] | IC50 (CYP3A4 [2]) [nM] | IC50 (CYP3A4 [3]) [nM] |
| --- | --- | --- | --- | --- |
| CN(C)Cc1ccc(CNC(=O)c2ccccc2S(=O)(=O)Nc2cccnc2)cc1 [Example 84, N-{4-[(dimethylamino)methyl]benzyl}-2-[(pyridin-3-ylamino)sulfonyl]benzamide] | > 1000 | 464 | > 750 | 28 |
| COc1cncc(NS(=O)(=O)c2ccccc2C(=O)NCc2ccc(F)cc2F)c1 [Example 212, N-(2,4-difluorobenzyl)-2-{[(5-methoxypyridin-3-yl)amino]sulfonyl}benzamide] | 20.3 | 6 | < 3 | 8 |
| O=C(NCc1cccc(OC(F)F)c1)c1ccccc1S(=O)(=O)Nc1cccnc1 [Example 71, N-[3-(difluoromethoxy)benzyl]-2-[(pyridin-3-ylamino)sulfonyl]benzamide] | 245 | 5.1 | 29 | < 3 |
| Cc1cncc(NS(=O)(=O)c2ccccc2C(=O)NCCc2ccccc2Cl)c1 [Example 226, N-[2-(2-chlorophenyl)ethyl]-2-{[(5-methylpyridin-3-yl)amino]sulfonyl}benzamide] | 16.4 | 2.6 | < 3 | 8 |
| CN(Cc1ccc(F)c(F)c1)C(=O)c1ccccc1S(=O)(=O)Nc1cncc(F)c1 [Example 163, N-(3,4-difluorobenzyl)-2-{[(5-fluoropyridin-3-yl)amino]sulfonyl}-N-methylbenzamide] | 263 | 58 | 49 | 82 |
| CCCN(CC1CC1)C(=O)c1ccccc1S(=O)(=O)Nc1cncc(OC)c1 [Example 390, N-(cyclopropylmethyl)-2-{[(5-methoxypyridin-3-yl)amino]sulfonyl}-N-propylbenzamide] | 84.9 | 1.78 | 18 | 70 |
| Cc1ccncc1NS(=O)(=O)c1ccccc1C(=O)N(C)Cc1ccc(C(F)(F)F)cc1 [Example 165, N-methyl-2-{[(4-methylpyridin-3-yl)amino]sulfonyl}-N-[4-(trifluoromethyl)benzyl]benzamide] | 163 | 29.6 | 43 | 54 |
| COc1cncc(NS(=O)(=O)c2ccccc2C(=O)NC2CCCC2)c1 [Example 214, N-cyclopentyl-2-{[(5-methoxypyridin-3-yl)amino]sulfonyl}benzamide] | 355 | 47.3 | 14 | 66 |
| CCN(CCn1cccn1)C(=O)c1ccccc1S(=O)(=O)Nc1cccnc1 [Example 40, N-ethyl-N-[2-(1H-pyrazol-1-yl)ethyl]-2-[(pyridin-3-ylamino)sulfonyl]benzamide] | > 1000 |  | 179 | 340 |
| Cc1cncc(NS(=O)(=O)c2ccccc2C(=O)NCCC(C)C)c1 [Example 362, N-(3-methylbutyl)-2-{[(5-methylpyridin-3-yl)amino]sulfonyl}benzamide] | 94.4 | 22.9 | 26 | 44 |
| COc1cncc(NS(=O)(=O)c2ccccc2C(=O)N[C@H](CO)CC2CCCCC2)c1 [Example 190, N-[(1S)-2-cyclohexyl-1-(hydroxymethyl)ethyl]-2-{[(5-methoxypyridin-3-yl)amino]sulfonyl}benzamide] | 16.9 | 3.4 | 7 | 16 |
| CCCCNC(=O)c1ccccc1S(=O)(=O)Nc1cnccc1C [Example 260, N-butyl-2-{[(4-methylpyridin-3-yl)amino]sulfonyl}benzamide] | 485 | 71.5 | 47 | 65 |
| CCOCCNC(=O)c1ccccc1S(=O)(=O)Nc1cncc(OC)c1 [Example 237, N-(2-ethoxyethyl)-2-{[(5-methoxypyridin-3-yl)amino]sulfonyl}benzamide] | 979 | 142 | 125 | 215 |
| COc1cncc(NS(=O)(=O)c2ccccc2C(=O)NC2CC3CCC2C3)c1 (centres unmarked) [Example 215, N-bicyclo[2.2.1]hept-2-yl-2-{[(5-methoxypyridin-3-yl)amino]sulfonyl}benzamide] | 216 | 43.3 | 25 | 58 |
| COc1cncc(NS(=O)(=O)c2ccccc2C(=O)N(C)Cc2ccccc2F)c1 [Example 198, N-(2-fluorobenzyl)-2-{[(5-methoxypyridin-3-yl)amino]sulfonyl}-N-methylbenzamide] | 41.7 | 16.6 | < 3 | 10 |
| COc1cncc(NS(=O)(=O)c2ccccc2C(=O)NC(C)(C)c2ccc(F)c(F)c2)c1 [Example 148, N-[1-(3,4-difluorophenyl)-1-methylethyl]-2-{[(5-methoxypyridin-3-yl)amino]sulfonyl}benzamide] | 18.1 | 4.9 | < 3 | 15 |
| CC(C)CCNC(=O)c1ccccc1S(=O)(=O)Nc1cccnc1 [Example 42, N-(3-methylbutyl)-2-[(pyridin-3-ylamino)sulfonyl]benzamide] | 378 | 22.5 | 35.9 | 51.5 |
| COc1cncc(NS(=O)(=O)c2ccccc2C(=O)NC(C)c2ccc(Cl)cc2)c1 (centres unmarked) [Example 182, N-[1-(4-chlorophenyl)ethyl]-2-{[(5-methoxypyridin-3-yl)amino]sulfonyl}benzamide] | 37.4 | 3.5 | 6 | 13 |
| Cc1cncc(NS(=O)(=O)c2ccccc2C(=O)NCCc2ccccc2C)c1 [Example 319, N-[2-(2-methylphenyl)ethyl]-2-{[(5-methylpyridin-3-yl)amino]sulfonyl}benzamide] | 4.3 | 7.2 | 10 | 11 |
| COc1cncc(NS(=O)(=O)c2ccccc2C(=O)NCc2ccc(F)c(F)c2)c1 [Example 368, N-(3,4-difluorobenzyl)-2-{[(5-methoxypyridin-3-yl)amino]sulfonyl}benzamide] | 7.6 | 1.1 | 6 | 18 |
| CCCCNC(=O)c1ccccc1S(=O)(=O)Nc1cccnc1 [Example 63, N-butyl-2-[(pyridin-3-ylamino)sulfonyl]benzamide] | 449 | 42.4 | 84.2 | 84.1 |
| Cc1cncc(NS(=O)(=O)c2ccccc2C(=O)NCc2ccc(F)c(C(F)(F)F)c2)c1 [Example 316, N-[4-fluoro-3-(trifluoromethyl)benzyl]-2-{[(5-methylpyridin-3-yl)amino]sulfonyl}benzamide] | 8.4 | 1.2 | 17 | 27 |
| COc1cncc(NS(=O)(=O)c2ccccc2C(=O)NCCc2ccncc2)c1 [Example 383, 2-{[(5-methoxypyridin-3-yl)amino]sulfonyl}-N-(2-pyridin-4-ylethyl)benzamide] | 912 | 31 | 67 | 348 |
| CCOc1cncc(NS(=O)(=O)c2ccccc2C(=O)NCc2ccc(Cl)c(Cl)c2)c1 [Example 291, N-(3,4-dichlorobenzyl)-2-{[(5-ethoxypyridin-3-yl)amino]sulfonyl}benzamide] | 4.5 | 2.98 | 21 | 27 |
| COc1ccncc1NS(=O)(=O)c1ccccc1C(=O)NCCOc1ccccc1 [Example 224, 2-{[(4-methoxypyridin-3-yl)amino]sulfonyl}-N-(2-phenoxyethyl)benzamide] | 399 | 56.8 | 29 | 56 |
| O=C(c1ccccc1S(=O)(=O)Nc1cccnc1)N1CCCCC1 [Example 67, 2-(piperidin-1-ylcarbonyl)-N-pyridin-3-ylbenzenesulfonamide] | 844 | 62 | 110 | 247 |
| Cc1cncc(NS(=O)(=O)c2ccccc2C(=O)NCc2ccc(F)c(F)c2)c1 [Example 320, N-(3,4-difluorobenzyl)-2-{[(5-methylpyridin-3-yl)amino]sulfonyl}benzamide] | 10.1 | 28.4 | 6 | 8 |
| COc1cncc(NS(=O)(=O)c2ccccc2C(=O)N2CCC(O)CC2)c1 [Example 365, 2-[(4-hydroxypiperidin-1-yl)carbonyl]-N-(5-methoxypyridin-3-yl)benzenesulfonamide] | > 1000 | 515 | > 750 | > 750 |
| CCOCCNC(=O)c1ccccc1S(=O)(=O)Nc1cncc(C)c1 [Example 228, N-(2-ethoxyethyl)-2-{[(5-methylpyridin-3-yl)amino]sulfonyl}benzamide] | > 1000 | 120 | 53 | 161 |
| CCOc1cncc(NS(=O)(=O)c2ccccc2C(=O)NC(C)(C)CC)c1 [Example 300, N-(1,1-dimethylpropyl)-2-{[(5-ethoxypyridin-3-yl)amino]sulfonyl}benzamide] | 57.6 | 19.5 | 16 | 39 |
